According to patent US11548868B2, “Heterocyclic compounds, compositions comprising heterocyclic compound, and methods of use thereof” (JS INNOPHARM (SHANGHAI) LTD, priority 2017, dated 2023):
pIC50: −log10 of the molar value.

Key:
[1] = biological target: T1, TDO2 in A172 cancer cells (Homo sapiens, UniProt P48775); assay: TDO2 Cellular Assay (kynurenine production in A172 cancer cells); assay type: cell-based; conditions: L-Trp 1 mM, 24 hours incubation, kynurenine at 490 nm
T1 construct: endogenous in cells; host or cells: A172 cancer cells
T1 sequence (P48775 whole entry): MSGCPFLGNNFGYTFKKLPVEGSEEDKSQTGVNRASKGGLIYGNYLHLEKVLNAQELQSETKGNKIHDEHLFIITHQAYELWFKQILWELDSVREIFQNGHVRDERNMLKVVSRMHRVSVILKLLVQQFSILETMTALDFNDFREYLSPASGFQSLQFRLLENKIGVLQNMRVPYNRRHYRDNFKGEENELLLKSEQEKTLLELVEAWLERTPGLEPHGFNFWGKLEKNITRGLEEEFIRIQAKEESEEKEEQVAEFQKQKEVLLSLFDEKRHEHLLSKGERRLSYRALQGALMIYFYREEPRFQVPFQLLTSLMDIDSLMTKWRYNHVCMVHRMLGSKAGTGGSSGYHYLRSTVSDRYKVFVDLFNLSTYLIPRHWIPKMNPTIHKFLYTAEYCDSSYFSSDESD
Summary of the method: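 A172 cells seeded overnight, then given 1 mM L-Trp and test compound (0–25 μM, 0.25% DMSO) for 24 h at 37 °C. Supernatant treated with TCA at 50 °C to convert N-formylkynurenine, kynurenine detected with p-dimethylaminobenzaldehyde at 490 nm; IC50 by non-linear regression of inhibition versus DMSO control.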

[2] = biological target: T2, IDO1 in Hela cancer cells (Homo sapiens, UniProt P14902); assay: IDO1 Cellular Assay (kynurenine production in IFN-γ stimulated Hela cancer cells); assay type: cell-based; conditions: human IFN-γ 50 ng/mL, 48 hours incubation, kynurenine at 490 nm
T2 construct: endogenous in cells; host or cells: Hela cancer cells stimulated with human IFN-γ
T2 sequence (P14902 whole entry): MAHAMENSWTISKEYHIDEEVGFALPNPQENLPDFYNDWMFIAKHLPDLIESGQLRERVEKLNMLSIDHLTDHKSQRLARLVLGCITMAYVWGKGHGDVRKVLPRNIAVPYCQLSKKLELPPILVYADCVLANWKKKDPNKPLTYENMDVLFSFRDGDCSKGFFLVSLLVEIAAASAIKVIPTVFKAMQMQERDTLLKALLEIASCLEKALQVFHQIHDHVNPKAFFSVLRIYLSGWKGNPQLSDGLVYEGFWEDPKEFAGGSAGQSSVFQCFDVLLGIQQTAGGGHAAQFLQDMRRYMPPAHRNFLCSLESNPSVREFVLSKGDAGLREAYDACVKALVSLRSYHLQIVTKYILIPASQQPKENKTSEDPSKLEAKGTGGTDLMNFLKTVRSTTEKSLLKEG
Summary of the method: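 HeLa cells stimulated with 50 ng/mL IFN-γ (final) and treated 48 h with compound (0–25 μM final, 0.25% DMSO). Supernatant kynurenine measured after TCA hydrolysis and p-dimethylaminobenzaldehyde reaction at 490 nm; inhibition vs DMSO control, IC50 by non-linear regression.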

Row | Compound | pIC50 [1] | pIC50 [2]
1 | Cc1cc(C(=O)N[C@H]2[C@@H]3C[C@@](O)(c4cc(Cl)cc5[nH]ncc45)C[C@@H]32)no1 [Example 154, N-((1R,3r,5S,6r)-3-(6-chloro-1H-indazol-4-yl)-3-hydroxybicyclo[3.1.0]hexan-6-yl)-5-methylisoxazole-3-carboxamide] | ≥ 6.30 | 6.00 to 6.30
2 | NS(=O)(=O)N[C@H]1[C@@H]2C[C@@](O)(c3cc(Cl)cc4[nH]ncc34)C[C@@H]21 [Example 140, N-((1R,3r,5S,6r)-3-(6-chloro-1H-indazol-4-yl)-3-hydroxybicyclo[3.1.0]hexan-6-yl)sulfuric diamide] | ≥ 6.30 | ≥ 6.30
3 | O=C(N[C@H]1[C@@H]2C[C@@](O)(c3cc(Cl)cc4[nH]ncc34)C[C@@H]21)c1cccc(Br)c1 [Example 146, 3-bromo-N-((1R,3r,5S,6r)-3-(6-chloro-1H-indazol-4-yl)-3-hydroxybicyclo[3.1.0]hexan-6-yl)benzamide] | ≥ 6.30 | ≥ 6.30
4 | O=C(N[C@@H]1[C@H]2C=C(c3cc(Cl)cc4[nH]ncc34)C[C@H]21)C1CC1 (racemic) [Example 183, Racemic-N-((1S,5R,6S)-3-(6-chloro-1H-indazol-4-yl)bicyclo[3.1.0]hex-2-en-6-yl)cyclopropanecarboxamide] | 5.30 to 6.00 | < 5.30
5 | O=C(N[C@H]1[C@@H]2C[C@@](O)(c3cc(Cl)cc4[nH]ncc34)C[C@@H]21)c1cccc(C2CC2)c1 [Example 178, N-((1R,3r,5S,6r)-3-(6-chloro-1H-indazol-4-yl)-3-hydroxybicyclo[3.1.0]hexan-6-yl)-3-cyclopropylbenzamide] | ≥ 6.30 | ≥ 6.30
6 | O=S(=O)(CC(F)(F)F)N[C@H]1[C@@H]2C[C@@](O)(c3cc(Cl)cc4[nH]ncc34)C[C@@H]21 [Example 139, N-((1R,3r,5S,6r)-3-(6-chloro-1H-indazol-4-yl)-3-hydroxybicyclo[3.1.0]hexan-6-yl)-2,2,2-trifluoroethanesulfonamide] | ≥ 6.30 | 6.00 to 6.30
7 | CC1(C)[C@H]2CN(c3cc(Cl)cc4cncn34)C[C@H]2CN1S(C)(=O)=O (racemic) [Example 44, Racemic-7-chloro-5-((3aR,6aS)-4,4-dimethyl-5-(methylsulfonyl)hexahydropyrrolo[3,4-c]pyrrol-2(1H)-yl)imidazo[1,5-a]pyridine] | < 5.30 | < 5.30
8 | O=C(N[C@H]1[C@@H]2C[C@@](O)(c3cc(Cl)cc4[nH]ncc34)C[C@@H]21)c1cccc(-c2ccccc2)c1 [Example 171, N-((1R,3r,5S,6r)-3-(6-chloro-1H-indazol-4-yl)-3-hydroxybicyclo[3.1.0]hexan-6-yl)-[1,1′-biphenyl]-3-carboxamide] | ≥ 6.30 | 6.00 to 6.30
9 | O=S(=O)(NC1CCCCC1)N[C@H]1[C@@H]2C[C@@](O)(c3cc(Cl)cc4[nH]ncc34)C[C@@H]21 [Example 123, N′-cyclohexyl-N-((1R,3r,5S,6r)-3-(6-chloro-1H-indazol-4-yl)-3-hydroxybicyclo[3.1.0]hexan-6-yl)sulfuric diamide] | ≥ 6.30 | 5.30 to 6.00
10 | O=C(NC1CC1)N[C@H]1[C@@H]2C[C@@](O)(c3cc(Cl)cc4[nH]ncc34)C[C@@H]21 [Example 120, 1-((1R,3r,5S,6r)-3-(6-chloro-1H-indazol-4-yl)-3-hydroxybicyclo[3.1.0]hexan-6-yl)-3-cyclopropylurea] | ≥ 6.30 | < 5.30
11 | O=C(C1CCOCC1)N1C[C@@H]2C[C@@](O)(c3cc(Cl)cc4cn[nH]c34)C[C@@H]2C1 [Example 97, ((3aR,5r,6aS)-5-(5-chloro-1H-indazol-7-yl)-5-hydroxyhexahydrocyclopenta[c]pyrrol-2(1H)-yl)(tetrahydro-2H-pyran-4-yl)methanone] | < 5.30 | < 5.30
